Reference: patent US7951530B2, “Cyclic maltosylmaltose, cyclic maltosymaltose-forming enzyme, their preparation and uses” (Kabushiki Kaisha Hayashibara Seibutsu Kagaku Kenkyujo, priority 2003, dated 2011)

Tests used:
Salivary α-amylase = biological target: T1, Salivary α-amylase (Homo sapiens, UniProt P0DUB6)
T1 sequence (P0DUB6 16-511): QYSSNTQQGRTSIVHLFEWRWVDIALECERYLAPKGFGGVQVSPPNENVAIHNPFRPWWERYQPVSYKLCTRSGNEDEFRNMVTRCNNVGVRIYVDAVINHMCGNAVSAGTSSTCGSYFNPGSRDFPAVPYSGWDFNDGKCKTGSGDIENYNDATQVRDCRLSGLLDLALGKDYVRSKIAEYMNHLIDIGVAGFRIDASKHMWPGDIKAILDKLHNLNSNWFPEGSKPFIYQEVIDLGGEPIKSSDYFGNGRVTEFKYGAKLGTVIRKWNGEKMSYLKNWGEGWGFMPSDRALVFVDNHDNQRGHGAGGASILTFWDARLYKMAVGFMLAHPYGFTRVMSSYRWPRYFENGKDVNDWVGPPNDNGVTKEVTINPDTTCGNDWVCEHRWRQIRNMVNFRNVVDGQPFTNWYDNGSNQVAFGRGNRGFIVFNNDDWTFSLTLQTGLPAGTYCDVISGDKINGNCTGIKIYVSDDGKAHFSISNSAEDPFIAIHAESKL
Text: (§1) 43, 23-29 (1990), the digestibility of CMM by salivary α-amylase, artificial gastric juice, pancreas amylase, and small intestinal enzymes were investigated using the powdery hydrous crystalline CMM, obtained by the method in Experiment 14.

Thermal stability of CMM = assay type: physicochemical; conditions: 7% (w/v) CMM, 120° C.; for Purity (%): HPLC
Method: A powdery hydrous crystalline CMM was dissolved in water for preparing an aqueous solution containing 7% (w/v) of CMM. Eight milliliters each of the resulting solution was pored into a glass tube, sealed closely, and then heated at 120° C. for 30 to 90 min. After cooling the solution, the degree of coloring of the solution was measured. Further, the purity of CMM in the solution was measured by HPLC. The degree of coloring was defined as an absorbance at 480 nm using a 1 cm-cell.

mice = test: Acute toxicity test; assay type: in vivo
Text: By using mice, CMM obtained by the method in Experiment 14 was orally administrated to the mice for its acute toxicity test. […] Though not so accurate, the value of LD50 of CMM was 5 g/kg-mouse weight or higher.

pH stability of CMM = assay type: physicochemical; conditions: 4% (w/v) CMM, 100° C. for 24 hours
Method: Eight milliliters of each solution was put in a glass tube, sealed and then heated at 100° C. for 24 hours. After cooling the solution, the degree of coloring and the purity of CMM were measured in the same manner in Experiment 17.

[1] = Concentration of CMM in saturated aqueous solution; assay type: physicochemical; conditions: 25° C.
Method: Successively, the glass vessel was sealed, and the suspension was stirred two days with keeping the temperature at 25° C. to give a saturated solution. After removing the solid CMM by filtrating the saturated solution, the moisture content of the filtrate was measured by the drying loss method to determine the concentration of CMM in saturated solution.

rat cecal contents = test: Test for fermentability by rat cecal contents; assay type: in vitro ADME, Wister-rat
Method: According to the method of Oku et al., described in Journal of Nutritional Science and Vitaminology, vol. […] The cecal contents was collected under an anaerobic condition by killing a Wister-rat under anesthesia and suspended into 4-folds by volume of 0.1 M sodium bicarbonate aqueous solution, and then used for the test. CMM was added to the cecal contents by about 7% (w/w) of the weight of the cecal contents. The amounts of CMM at just after mixing and after 12 hours were determined by gas-chromatography. […] About 92% of CMM was not fermented and remained.

[2] = Reducing power by the Somogyi-Nelson method; assay type: physicochemical
Text: It was concluded that the saccharide was a non-reducing saccharide substantially.

[3] = Clathrating action of CMM; assay type: physicochemical; conditions: for strength of clathrating activity in comparison with branched cyclodextrin: on a weight basis
Text: One hundred grams of the aqueous solution was admixed with 1.2 g of methanol, 1.7 g of ethanol, or 2.2 g of acetic acid as flavor components for allowing CMM to clathrate the flavor components. Successively, each solution was filtrated, and the resulting filtrate was freeze-dried to remove unclathrated flavor component. As a control, “ISOELITE P”, a mixture of branched cyclodextrins commercialized by Maruha Corporation, Tokyo, Japan, which has been known to have a clathrating activity, was tested by the same procedure. In order to measure the amount of flavor component clathrated in the freeze-dried powder, 1 g of each freeze-dried powder was dissolved in 5 ml of water and admixed with 5 ml of diethylether to extract the flavor component, and the extraction was repeated once more. The amount of the extracted flavor component in diethylether was measured by gas-chromatography.

[4] = Amino-carbonyl reaction with polypeptone; assay type: physicochemical; conditions: 5% (w/v) saccharide, 5% (w/v) polypeptone, 120° C., blank subtracted
Method: As a control, an aqueous solution containing maltose and polypeptone was prepared in the same manner using maltose except for the powdery hydrous crystalline CMM. Four milliliters each of the solution was put in a glass tube, sealed and then heated at 120° C. for 30, 60, or 90 min. After cooling the solutions, the degrees of coloring of the solutions were measured to estimate the degree of amino-carbonyl reaction. As a blank test, a solution containing polypeptone only was heated in the same manner. The degree of coloring was defined as an absorbance at 480 nm using a 1 cm-cell after subtracting the absorbance of the blank test.

Text for Pancreas α-amylase: as §1
Text for Small intestinal enzymes: as §1

Compound: OC[C@H]1O[C@@H]2OC[C@H]3O[C@H](O[C@H]4[C@H](O)[C@@H](O)[C@@H](OC[C@H]5O[C@H](O[C@H]1[C@H](O)[C@H]2O)[C@H](O)[C@@H](O)[C@@H]5O)O[C@@H]4CO)[C@H](O)[C@@H](O)[C@@H]3O [CMM, cyclo{>6)-α-D-glucopyranosyl-(1>4)-α-D-glucopyranosyl-(1>6)-α-D-glucopyranosyl-(1>4)-α-D-glucopyranosyl-(1>}]
- Degradation rate (%) (Salivary α-amylase): 0%
- Degree of coloring (A480 nm) (Thermal stability of CMM; heating time 0 min): 0
- Purity (%) (Thermal stability of CMM; heating time 0 min): 100%
- Degree of coloring (A480 nm) (Thermal stability of CMM; heating time 30 min): 0
- Purity (%) (Thermal stability of CMM; heating time 30 min): 100%
- Degree of coloring (A480 nm) (Thermal stability of CMM; heating time 60 min): 0
- Purity (%) (Thermal stability of CMM; heating time 60 min): 100%
- Degree of coloring (A480 nm) (Thermal stability of CMM; heating time 90 min): 0
- Purity (%) (Thermal stability of CMM; heating time 90 min): 100%
- mortality (mice; oral administration at the highest possible dose): no mouse died
- LD50 (mice; oral administration, mice, though not so accurate): ≥ 5 g/kg-mouse weight
- Degradation rate (%) (Small intestinal enzymes): 0%
- Degree of coloring (A480 nm) (pH stability of CMM; pH 2.0, Acetate buffer): 0
- Purity (%) (pH stability of CMM; pH 2.0, Acetate buffer): 93%
- Degree of coloring (A480 nm) (pH stability of CMM; pH 3.0, Acetate buffer): 0
- Purity (%) (pH stability of CMM; pH 3.0, Acetate buffer): 100%
- Degree of coloring (A480 nm) (pH stability of CMM; pH 4.0, Acetate buffer): 0
- Purity (%) (pH stability of CMM; pH 4.0, Acetate buffer): 100%
- Degree of coloring (A480 nm) (pH stability of CMM; pH 5.0, Acetate buffer): 0
- Purity (%) (pH stability of CMM; pH 5.0, Acetate buffer): 100%
- Degree of coloring (A480 nm) (pH stability of CMM; pH 6.0, Tris-HCl buffer): 0
- Purity (%) (pH stability of CMM; pH 6.0, Tris-HCl buffer): 100%
- Degree of coloring (A480 nm) (pH stability of CMM; pH 7.0, Tris-HCl buffer): 0
- Purity (%) (pH stability of CMM; pH 7.0, Tris-HCl buffer): 100%
- Degree of coloring (A480 nm) (pH stability of CMM; pH 8.0, Tris-HCl buffer): 0
- Purity (%) (pH stability of CMM; pH 8.0, Tris-HCl buffer): 100%
- Degree of coloring (A480 nm) (pH stability of CMM; pH 9.0, Ammonium buffer): 0
- Purity (%) (pH stability of CMM; pH 9.0, Ammonium buffer): 100%
- saturated concentration of CMM to water [1]: about 8.0 % (w/w)
- CMM not fermented and remained (rat cecal contents; after 12 hours): About 92%
- concentration of CMM in the cecal contents (rat cecal contents; after 12 hours): 63.0 mg/g-cecal contents
- concentration of CMM in the cecal contents (rat cecal contents; just after adding): 68.5 mg/g-cecal contents
- reducing power [2]: less than the measurable limit
- strength of clathrating activity in comparison with branched cyclodextrin ([3]; acetic acid): ~0.8 fold
- strength of clathrating activity in comparison with branched cyclodextrin ([3]; ethanol): ~0.5 fold
- Amount of flavor component clathrated (mg/g-freeze-dried powder) ([3]; flavor component Acetic acid): 30.55 mg/g-freeze-dried powder
- Amount of flavor component clathrated (mg/g-freeze-dried powder) ([3]; flavor component Ethanol): 4.20 mg/g-freeze-dried powder
- Amount of flavor component clathrated (mg/g-freeze-dried powder) ([3]; flavor component Methanol): 4.30 mg/g-freeze-dried powder
- strength of clathrating activity in comparison with branched cyclodextrin ([3]; methanol): about 1.3 folds
- Degree of coloring (A480 nm) ([4]; heating time 0 min): 0.00
- Degree of coloring (A480 nm) ([4]; heating time 30 min): 0.00
- Degree of coloring (A480 nm) ([4]; heating time 60 min): 0.00
- Degree of coloring (A480 nm) ([4]; heating time 90 min): 0.00
- Degradation rate (%) (Pancreas α-amylase): 0%
